{
  "source": "patent US20250250310A1",
  "about": "“COMBINATION THERAPY WITH ADP-RIBOSE BINDING PEPTIDE AND ADP-RIBOSE FOR PREVENTION OR TREATMENT OF CANCER” (PEARLSINMIRES CO., LTD., priority 2023, published 2025)",
  "key": {"[1]": {"system": "PARP inhibitor-resistant breast cancer (HCC1937) cells", "assay": "Cell viability (MTT) in PARP inhibitor-resistant cancer cell line", "type": "cell-based, human", "settings": "96 hours", "protocol": "Specifically, 2.5×10^3 PARP inhibitor-resistant breast cancer (HCC1937) cells were cultured in a 96-well plate for 24 hours under 37° C. and 5% CO2 conditions.\nThe cells were then divided into the following groups and treated with each peptide according to Examples at GI50 concentration alone or in combination. • 1) Untreated group • 2) Group treated with PARP inhibitor (Olaparib) at 2 μM concentration • 3) Group treated with ADPR at 1 mM concentration alone • 4) Groups treated with each peptide of Examples 1 to 6 at 25 μM concentration alone • 5) Groups treated with each CPP-peptide of Examples 15 to 20 at 10 μM concentration alone • 6) Group treated in combination with ADPR at 1 mM concentration and each peptide of Examples 1 to 6 at 25 μM concentration (Combination 1) • 6) Group treated in combination with ADPR at 1 mM concentration and CPP-peptide of Examples 15 to 20 at 10 μM concentration (Combination 2)\n(§1) The cells were then cultured for another 96 hours under 37° C. and 5% CO2 conditions, and 10 μl of 3-(4,5-dimethylthiazol-2-yl)-2,5-diphenyltetrazolium bromide reagent was added to each well and reacted for 1 hour. The reagent was removed at the end of the reaction, 200 μl of dimethyl sulfoxide was then added to each well, and the absorbance was measured to determine the cell viability."}, "[2]": {"system": "ovarian cancer (OVCAR-3) cells", "assay": "OVCAR-3 cell viability (MTT), peptides and NAD^+ alone or in combination", "type": "cell-based, human", "settings": "NAD^+ 1 mM alone, 96 hours", "protocol": "(§2) Specifically, 2.5×10^3 ovarian cancer (OVCAR-3) cells were cultured in a 96-well plate for 24 hours under 37° C. and 5% CO2 conditions, and then divided into the following groups and treated with each peptide according to Examples at GI50 concentration alone or in combination. • 1) Untreated group • 2) Group treated with NAD^+ at 1 mM concentration alone • 3) Group treated with peptide of Example 2 at 25 μM concentration alone • 4) Group treated with CPP-peptide of Example 16 at 10 μM concentration alone • 5) Group treated in combination with NAD^+ at 1 mM concentration and peptide of Example 2 at 25 μM concentration (Combination 1) • 6) Group treated in combination with NAD^+ at 1 mM concentration and CPP-peptide of Example 16 at 10 μM concentration (Combination 2)\nas §1"}, "MDA-MB-231 cancer cells": {"system": "MDA-MB-231 cancer cells", "assay": "MDA-MB-231 cell viability (MTT), sustained release derivative alone or in combination", "type": "cell-based", "settings": "96 hours", "protocol": "Each of 2.5×10^3 human-derived pancreatic cancer (Aspc-1), kidney cancer (Caki-1), breast cancer (HCC1937), liver cancer (HepG2), lung cancer (H1975), colon cancer (HCT116), ovarian cancer (OVCAR-3), brain cancer (U87) cells were cultured in a 96-well plate under 37° C. and 5% CO2 conditions for 24 hours, and then treated with the sustained release derivative alone. In addition, MDA-MB-231 cancer cells were divided into the following groups and treated with each formulation at GI20 concentration alone or in combination. • 1) Untreated group • 2) Group treated with sustained-release derivative alone at 5 μM concentration • 3) Group treated with ADPR at 2 mM concentration alone • 4) Group treated with NAD^+ at 2 mM concentration alone • 5) Groups treated with various anti-cancer drugs alone (Cisplatin at 2 μM, Docetaxel at 1 μM, Dichloroacetate at 3 mM, Doxorubicin at 2 μM, Sorafenib at 2 μM, Osimertinib at 10 nM, Trastuzumab at 0.2 μM, Bevacizumab at 0.2 nM, Tamoxifen at 0.2 μM, or Olaparib at 1 μM) • 6) Group treated in combination with ADPR at 2 mM concentration and a sustained-release derivative at 5 μM concentration • 7) Group treated in combination with ADPR at 2 mM concentration, NAD^+ at 2 mM concentration, and a sustained-release derivative at 5 μM concentration • 8) Group treated in combination with ADPR at 2 mM concentration, a sustained-release derivative at 5 μM concentration, and various anti-cancer drugs (same concentration as Group 5 above).\nas §1, with “at” for “under”, “CO2,” for “CO2 conditions,”"}, "[3]": {"assay": "Normal cytotoxicity of sustained release derivative alone or in combination (MTT)", "type": "cell-based", "settings": "human, MRC5 cells (normal), sustained-release derivative alone, read-out: viability of normal cells compared to the untreated group", "protocol": "In a 96-well plate, 2.5×10^3 human-derived normal MRC5 cells were cultured for 24 hours under 37° C. and 5% CO2 conditions, and then treated with the sustained-release derivative and ADPR alone or in combination.\nas §1, with “96 hours at 37° C.” for “96 hours under 37° C.”, “and 5% CO2, and 10” for “and 5% CO2 conditions, and 10”, “hour. The MTT reagent was” for “hour. The reagent was”"}, "[4]": {"system": "Colon cancer (HCT116) cells", "assay": "HCT116 cell viability (MTT), peptides and ADP-ribose alone or in combination", "type": "cell-based, human", "settings": "treated groups vs untreated, ADPR 1 mM, peptide 25 μM, CPP-peptide 10 μM, 96 hours", "protocol": "(§3) 2.5×10^3 Colon cancer (HCT116) cells were cultured in a 96-well plate for 24 hours under 37° C. and 5% CO2 conditions, and then divided into the following groups and treated with each peptide according to Examples at GI50 concentration alone or in combination. • 1) Untreated group • 2) Group treated with ADPR at 1 mM concentration alone • 3) Group treated with peptide of Example 6 at 25 μM concentration alone • 4) Group treated with each CPP-peptide of Example 20 at 10 μM concentration alone • 5) Group treated in combination with ADPR at 1 mM concentration and peptide of Example 6 at 25 μM concentration (Combination 1) • 6) Group treated in combination with ADPR at 1 mM concentration and CPP-peptide of Example 20 at 10 μM concentration (Combination 2)\nas §1"}, "[5]": {"system": "Lung cancer (H1975) cells", "assay": "H1975 cell viability (MTT), peptides and ADP-ribose alone or in combination", "type": "cell-based, human", "settings": "treated groups vs untreated, ADPR 1 mM, peptide 25 μM, CPP-peptide 10 μM, 96 hours", "protocol": "as §3, with “2.5×10^3 Lung” for “2.5×10^3 Colon”, “cancer (H1975)” for “cancer (HCT116)”, “Example 5” for “Example 6”, “Example 19” for “Example 20”\nas §1"}, "[6]": {"system": "Breast cancer (HCC1937) cells", "assay": "HCC1937 cell viability (MTT), peptides and ADP-ribose alone or in combination", "type": "cell-based, human", "settings": "treated groups vs untreated, ADPR 1 mM, peptide 25 μM, CPP-peptide 10 μM, 96 hours", "protocol": "as §2, with “2.5×10^3 Breast” for “Specifically, 2.5×10^3 ovarian”, “2.5×10^3 Breast cancer (HCC1937)” for “Specifically, 2.5×10^3 ovarian cancer (OVCAR-3)”, “Breast cancer (HCC1937) cells were” for “ovarian cancer (OVCAR-3) cells were”, “treated with ADPR at 1” for “treated with NAD^+ at 1”, “treated with each CPP-peptide of” for “treated with CPP-peptide of”, “combination with ADPR at 1” for “combination with NAD^+ at 1”\nas §1"}, "[7]": {"system": "Liver cancer (HepG2) cells", "assay": "HepG2 cell viability (MTT), peptides and ADP-ribose alone or in combination", "type": "cell-based, human", "settings": "treated groups vs untreated, ADPR 1 mM, peptide 25 μM, CPP-peptide 10 μM, 96 hours", "protocol": "as §3, with “2.5×10^3 Liver” for “2.5×10^3 Colon”, “cancer (HepG2)” for “cancer (HCT116)”, “Example 4” for “Example 6”, “Example 18” for “Example 20”\nas §1"}, "[8]": {"system": "Pancreatic cancer (AsPC-1) cells", "assay": "AsPC-1 cell viability (MTT), peptides and ADP-ribose alone or in combination", "type": "cell-based, human", "settings": "treated groups vs untreated, ADPR 1 mM, peptide 25 μM, CPP-peptide 10 μM, 96 hours", "protocol": "as §3, with “2.5×10^3 Pancreatic” for “2.5×10^3 Colon”, “cancer (AsPC-1)” for “cancer (HCT116)”, “Example 3” for “Example 6”, “Example 17” for “Example 20”\nas §1"}, "[9]": {"system": "Kidney cancer (Caki-1) cells", "assay": "Caki-1 cell viability (MTT), peptides and ADP-ribose alone or in combination", "type": "cell-based, human", "settings": "treated groups vs untreated, ADPR 1 mM, peptide 25 μM, CPP-peptide 10 μM, 96 hours", "protocol": "as §3, with “2.5×10^3 Kidney” for “2.5×10^3 Colon”, “cancer (Caki-1)” for “cancer (HCT116)”, “Example 1” for “Example 6”, “Example 15” for “Example 20”\nas §1"}},
  "note": "Where a SMILES comes first, the peptide text is derived from it. [ ]: non-standard residue; d: D form. The star is where a group is joined. Stearoyl = CCCCCCCCCCCCCCCCCC(=O)*; AEEA = NCCOCCOCC(=O)O",
  "data": [
    {"smiles": "O=C(c1cc(Cc2n[nH]c(=O)c3ccccc23)ccc1F)N1CCN(C(=O)C2CC2)CC1", "note": "[Olaparib, reference compound]", "values": [
      {"measurement": "viability at 2 µM", "setting": "[1]; Homo sapiens, Olaparib 2 μM alone, read-out: cancer cells viable", "value": "~80", "unit": "%"}
    ]},
    {"smiles": "NC(=O)c1ccc[n+]([C@@H]2O[C@H](COP(=O)(O)OP(=O)(O)OC[C@H]3O[C@@H](n4cnc5c(N)ncnc54)[C@H](O)[C@@H]3O)[C@@H](O)[C@H]2O)c1", "note": "[NAD^+, nicotinamide adenine dinucleotide]", "values": [
      {"measurement": "cell growth / viability vs control group", "setting": "[2]", "value": "not significantly different from the control group"},
      {"measurement": "viability at 2000 µM", "setting": "MDA-MB-231 cancer cells; Homo sapiens, single treatment (derivative 5 μM, ADPR 2 mM, NAD^+ 2 mM, anti-cancer drugs)", "value": 80, "unit": "%"}
    ]},
    {"smiles": "CCCCCCCCCCCCCCCCCC(=O)NCCCC[C@H](NC(=O)[C@H](CCCNC(=N)N)NC(=O)[C@H](CCCNC(=N)N)NC(=O)[C@H](CCCNC(=N)N)NC(=O)CNC(=O)[C@H](Cc1c[nH]cn1)NC(=O)[C@H](CCC(=O)O)NC(=O)[C@H](CC(N)=O)NC(=O)[C@H](CCCNC(=N)N)NC(=O)[C@H](CCCNC(=N)N)NC(=O)[C@H](Cc1ccc(O)cc1)NC(=O)[C@H](CCC(N)=O)NC(=O)[C@@H](NC(=O)[C@H](CCSC)NC(=O)[C@H](CC(N)=O)NC(=O)[C@H](CCC(=O)O)NC(=O)[C@H](CC(C)C)NC(=O)[C@H](CC(=O)O)NC(=O)[C@H](C)NC(=O)[C@@H](NC(=O)[C@H](Cc1ccc(O)cc1)NC(=O)[C@H](CC(C)C)NC(=O)[C@H](Cc1ccccc1)NC(=O)[C@H](CCC(N)=O)NC(=O)[C@@H]1CCCN1C(=O)[C@H](CCCNC(=N)N)NC(=O)[C@H](CCCNC(=N)N)NC(=O)[C@H](CCCNC(=N)N)NC(=O)[C@H](CCC(N)=O)NC(=O)[C@H](CCCNC(=N)N)NC(=O)[C@H](CCCNC(=N)N)NC(=O)[C@H](CCCCN)NC(=O)[C@H](CCCCN)NC(=O)[C@H](CCCNC(=N)N)NC(=O)CNC(=O)COCCOCCN)C(C)C)C(C)C)C(=O)N[C@H](C(=O)N[C@@H](CCCCN)C(=O)N[C@@H](CCCNC(=N)N)C(N)=O)[C@@H](C)CC", "note": "[sustained-release derivative] (H-[AEEA]GRKKRRQRRRPQFLYVADLENMVQYRRNEHGRRRK(Stearoyl)IKR-NH2; C-terminus assumed)", "values": [
      {"measurement": "viability at 96 h", "setting": "[3]", "value": "≥ 90", "unit": "%"},
      {"measurement": "cytotoxicity, triple-drug combination", "setting": "MDA-MB-231 cancer cells; sustained-release derivative 5 μM + ADPR 2 mM + NAD^+ 2 mM or various anti-cancer drugs", "value": "significantly superior cytotoxicity"},
      {"measurement": "cytotoxicity, combination with ADPR", "setting": "MDA-MB-231 cancer cells; sustained-release derivative 5 μM + ADPR 2 mM", "value": "showed cytotoxicity"}
    ]},
    {"smiles": "Nc1ncnc2c1ncn2[C@@H]1O[C@H](COP(=O)(O)OP(=O)(O)OC[C@H]2O[C@@H](O)C(O)C2O)C(O)C1O", "note": "(some centres unmarked) [ADP-ribose]", "values": [
      {"measurement": "cell viability", "setting": "[4]", "value": "viability was reduced"},
      {"measurement": "cell viability", "setting": "[5]", "value": "viability was reduced"},
      {"measurement": "cell viability", "setting": "[6]", "value": "viability was reduced"},
      {"measurement": "cell viability, single treatment", "setting": "[1]; ADPR 1 mM, peptide 25 μM or CPP-peptide 10 μM alone", "value": "significantly reduced cell viability"},
      {"measurement": "cell viability", "setting": "MDA-MB-231 cancer cells; single treatment (derivative 5 μM, ADPR 2 mM, NAD^+ 2 mM, anti-cancer drugs)", "value": 80, "unit": "%"},
      {"measurement": "cell viability", "setting": "[7]", "value": "viability was reduced"},
      {"measurement": "cell viability", "setting": "[8]", "value": "viability was reduced"},
      {"measurement": "cell viability", "setting": "[9]", "value": "viability was reduced"}
    ]}
  ]
}
